{"source": "patent US20130316958A1", "about": "(University of Southern California, priority 2010, published 2013)", "key": {"NIH3T3 cells": {"system": "NIH3T3 cells", "assay": "GFP-LC3 autophagy with ectopic FLIP expression", "type": "cell-based", "conditions": "Hank's solution 4 hr or 2 μM rapamycin 3 hr", "experimental": "At 12-16 hours post-transfection with GFP-LC3, NIH3T3 cells containing vector or the FLIP gene were treated with Hank's solution for 4 hr or with 2 μM rapamycin for 3 hr. Subsequently, GFP-LC3 was detected using an inverted fluorescence microscope, autophagy was quantified as means (±SD) of the combined results from three independent experiments, and autophagosomes were visualized through scanning electron microscopy. NIH3T3-Vector, NIH3T3-KSHV-vFLIP, and NIH3T3-MCV-159L cells were treated with Hank's solution for 4 hr, followed by immunoblotting with anti-LC3 and anti-βTubulin. At 12-16 hr post-transfection with GFP-LC3, TREX-BCBL-Vector and TREX-BCBL-vFLIP cells were treated with doxycycline for 24 hr, followed by incubation with 2 μM rapamycin for an additional 12 hr. The detection of GFP-LC3 and autophagy levels was performed as described above, vFLIP expression was detected by IB with anti-Flag, and autophagosomes were visualized by scanning EM. TNF-induced apoptosis and NF-κB luciferase assay were performed as previously described (Matta and Chaudhary (2004) Proc. Natl. Acad. Sci. USA 101:9399-9404).\nThe anti-autophagic properties of vFLIP, as well as the related cFLIP, HSV, and MCV, were evaluated by ectopic expression of HVS, vFLIP, MCV 159L, and the short form of cFLIP (cFLIPs) in NIHI3T3 cells. DNA fragments corresponding to the coding sequences of the KSHV-vFLIP, human cFLIPs, MCV-MC159, and HVS-vFLIP genes were amplified via polymerase chain reaction and subcloned into pcDNA5/FRT/TO between the AflII and BamHI restriction sites or pEF-IRES-puro between the AflII and XbaI sites. Starvation studies were carried out by transfecting cells containing vector or the FLIP gene with GFP-LC3, then 12-16 h post-transfection, treating the cells with Hank's solution for 4 hr or with 2 μM rapamycin for 3 hr. Autophagy was assessed by GFP-LC3 redistribution using an inverted fluorescence microscope, quantifying autophagy as means (±SD) of the combined results from three independent experiments. Autophagosomes were visualized through scanning electron microscopy. […]"}, "NF-κB": {"system": "NF-κB", "assay": "NF-κB luciferase reporter assay", "type": "cell-based", "conditions": "NIH3T3 cells, 48 hr post-transfection", "text": "To determine the effects of the interactions of vFLIP with FADD, IKKαβγ, and 14-3-3σ on anti-autophagy activity, NIH3T3 cells stably expressing various vFLIP mutants were constructed: m14-3-3σ, which lacks 14-3-3σ-binding; mTRAF2, which lacks TRAF2-binding (Guasparri et al. (2006) EMBO Rep. 7:114-119); 67AAA and 58AAA, which have reduced NF-κB activation (Matta and Chaudhary (2004) Proc. Natl. Acad. Sci. USA 101:9399-9404); and mFADD, which lacks FADD-binding (Yang et al. (2005) Mol. Cell. 20:939-949). These cells were treated with either cyclohexamide (CHX) alone or CHX and TNF-α for 12 hr or with 2 μM rapamycin for 3 hr. Propidium iodide (PI) staining and flow cytometry analysis were performed to determine apoptosis levels. Alternatively, NIH3T3 cells containing vector, KSHV vFLIP, or its mutants were transfected with an NF-κB-luciferase reporter construct and a control renilla luciferase plasmid, pRL-SV40 (Promega). At 48 hr post-transfection, luciferase activity was measured with a luminometer using a dual luciferase assay kit (Promega) and normalized with renilla luciferase activity to determine transfection efficiency. GFP-LC3 puncta were detected using an inverted fluorescence microscope and the autophagy levels quantified as means (±SD) of the results from three independent experiments."}}}
{"substance": "KSHV vFLIP: viral FLICE-like inhibitor protein of Kaposi's sarcoma-associated herpesvirus, expressed in cells", "values": [{"measurement": "suppression of starvation- and rapamycin-induced autophagy", "setting": "NIH3T3 cells", "value": "strongly suppressed starvation- and rapamycin-induced autophagy"}, {"measurement": "NF-κB activation", "setting": "NF-κB", "value": "carried out NF-κB activation"}]}
